Data published in US8008329B2 (Dong Wha Pharmaceutical Co., Ltd., priority 2008, dated 2011).
Marks after values point to notes of the source that are not given here.

System: osteoclast differentiation
Test: Osteoclast differentiation in co-culture of mouse bone marrow cells and ST2 cells, TRAP staining (Examples 8-9)
Format: cell-based
Settings: for % number of osteoclast (vs. solvent control group): day 7; for activity at 0.1 µM: Mus musculus, Osteoclast, 168 h, day 7, read-out: % number of osteoclast (vs. solvent control group)
Procedure: The differentiation of osteoclast from mouse bone marrow cells was induced by using co-culture system, and inhibitory effect of the drug on osteoclast differentiation was evaluated by treatment of single or combination formulation. Co-culture was performed using mouse bone marrow cells and ST cells of bone marrow-derived stromal cell.
Femora and tibia were aseptically ectomized from 6˜8 week-old male ddY mice to harvest bone marrow cells by a general method using a syringe. The red blood cells were removed from the bone marrow cells, followed by centrifugation. The bone marrow cells were suspended in α-MEM medium supplemented with 10% fetal bovine serum, and the numbers of the eukaryotic cells in the harvested bone marrow cells were counted and then immediately used for a co-culture system.
ST2 cells (RIKEN Cell Bank, Tsukuba, Japan) were cultured in α-MEM medium supplemented with 10% fetal bovine serum until confluent. Then, these cells were diluted to a desired cell number, and used for the experiment.
The bone marrow cells (1×10^5 cells/well) and ST2 cells (3,000 cells/well) prepared in the above were plated in a 96-well plate using α-MEM medium supplemented with 10% fetal bovine serum. At this time, differentiation factors, 1α,25-dihydroxyvitamin D3 (10^−8 M, hereinbelow, referred to as vitamin D3) and dexamethasone (10^−8 M), were co-added to the medium to induce osteoclast differentiation. The medium was replaced with fresh media containing the differentiation factors every 2 to 3 days.
After 7 days, when multinucleated osteoclasts were observed, the medium was removed from the wells, and then the cells were fixed with PBS containing 10% Formalin. Tartrate-Resistant Acid Phosphatase (hereinbelow, referred to as TRAP) was used as a marker to measure the mature osteoclast in consideration of its characteristics showing a positive reaction to a TRAP staining solution. The TRAP staining solution was prepared in such the manner that a substrate, naphtol AS-MS phosphate and a coloring agent (Fast Red Violet LB salt) were dissolved in N,N-dimethylformamide. A 0.1 N NaHCO3 buffer solution containing 50 mM tartaric acid was added thereto, and the mixture was stored at a refrigerator prior to use as a staining solution. The osteoclasts with 6-7 or more nuclei showing a TRAP-positive reaction were counted under a microscope.
Alendronic acid was dissolved in distilled water at a concentration of 0.1 mM, and benzamidine derivatives were dissolved in DMSO at a concentration of 0.1 mM. All of them were diluted 1,000 fold with the differentiation media to a final concentration of 0.1 μM, respectively. In this connection, a control group was maintained in 0.1% DMSO.
As the above described, the sample substances and cells, which were diluted to the desired concentrations, were plated in 96-well plate, and co-cultured. On days 3 and 5 of culture, the media were replaced with fresh differentiation media containing the sample substances. On day 7 of culture, TRAP staining was performed to count the mature multinucleated osteoclast that was formed by differentiation. The mature osteoclasts with 6 or more nuclei were counted under a microscope. The results were expressed as a percentage (%) of the number of mature osteoclast observed in each experimental group, when the number of mature osteoclast in the control group (solvent only) was regarded as 100%. The experiment was performed with 4 wells per experimental group (n=4), and the results were expressed as mean value±standard deviation. In addition, the experiment was repeated at least two times, and Student t-test was applied for significant difference between experimental groups.
The experiment was performed in the same manner as in Example 8 to evaluate the effect of individual or combination treatment of risedronic acid and benzamidine derivatives of Formula 1 on osteoclast differentiation, except using 0.1 μM risedronic acid instead of 0.1 μM alendronic acid. […]

[1] = Combination treatment (alendronic acid + compounds), 0.1 μM each
[2] = Combination treatment (risedronic acid + compounds), 0.1 μM each
[3] = Individual treatment (compounds), 0.1 μM

CCCNc1nc(-c2ccc(OCCCCCOc3ccc(C(=N)NO)cc3)cc2)c(CC2CCCC2)s1 [Compound 111, N-hydroxy-4-{5-[4-(5-cyclopentylmethyl-2-propylamino-1,3-thiazol-4-yl)phenoxy]pentyloxy}-benzamidine]
% number of osteoclast (vs. solvent control group) [1]: 51 ± 6.0%
% number of osteoclast (vs. solvent control group) [2]: 32 ± 5.2^ac %
activity at 0.1 µM [3]: 76 ± 12.2%

N=C(NO)c1ccc(OCCCCCOc2ccc(-c3nc(NC(=O)c4ccncc4)sc3CC3CCCC3)cc2)cc1 [Compound 112, N-hydroxy-4-{5-[4-(5-cyclopentylmethyl-2-(4-pyridylcarbonyl)amino-1,3-thiazol-4-yl)phenoxy]pentyloxy}-benzamidine]
% number of osteoclast (vs. solvent control group) [1]: 35 ± 7.6^ab %
% number of osteoclast (vs. solvent control group) [2]: 31 ± 8.0^ac %
activity at 0.1 µM [3]: 77 ± 9.8%

CNc1nc(-c2ccc(OCCCCCOc3ccc(C(=N)NO)cc3)cc2)c(CCCl)s1 [Compound 115, N-hydroxy-4-{5-[4-(5-(2-chloroethyl)-2-methylamino-1,3-thiazol-4-yl)phenoxy]pentyloxy}-benzamidine]
% number of osteoclast (vs. solvent control group) [1]: 51 ± 8.9%
% number of osteoclast (vs. solvent control group) [2]: 45 ± 8.3^ac %
activity at 0.1 µM [3]: 77 ± 12.4%

Cc1sc(N(C)CCO)nc1-c1ccc(OCCCCCOc2ccc(C(=N)NO)cc2)cc1 [Compound 120]
% number of osteoclast (vs. solvent control group) [1]: 54 ± 2.4^ab %
% number of osteoclast (vs. solvent control group) [2]: 55 ± 9.1^ac %
activity at 0.1 µM [3]: 80 ± 6.5%

CCN(CCO)c1nc(-c2ccc(OCCCCCOc3ccc(C(=N)NO)cc3)cc2)c(C)s1 [Compound 121, N-hydroxy-4-[5-(4-{2-[ethyl-(2-hydroxyethyl) -amino]-5-methyl-1,3-thiazol-4-yl}phenoxy)pentyloxy]-benzamidine]
% number of osteoclast (vs. solvent control group) [1]: 55 ± 11.1^ab %
% number of osteoclast (vs. solvent control group) [2]: 39 ± 5.7^ac %
activity at 0.1 µM [3]: 95 ± 3.9%

COCCN(CCOC)c1nc(-c2ccc(OCCCCCOc3ccc(C(=N)NO)cc3)cc2)c(C)s1 [Compound 122, N-hydroxy-4-[5-(4-{2-[bis-(2-methoxyethyl) -amino]-5-methyl-1,3-thiazol-4-yl}phenoxy)pentyloxy]-benzamidine]
% number of osteoclast (vs. solvent control group) [1]: 37 ± 8.1^ab %
% number of osteoclast (vs. solvent control group) [2]: 49 ± 7.3^ac %
activity at 0.1 µM [3]: 71 ± 4.4%

CCN(CCN1CCOCC1)c1nc(-c2ccc(OCCCCCOc3ccc(C(=N)NO)cc3)cc2)c(C)s1 [Compound 124, N-hydroxy-4-[5-(4-{2-[ethyl-1-(2-morpholinoethyl)-amino]-5-methyl-1,3-thiazol-4-yl}phenoxy)pentyloxy]-benzamidine]
% number of osteoclast (vs. solvent control group) [1]: 21 ± 4.3^ab %
% number of osteoclast (vs. solvent control group) [2]: 17 ± 5.2^ac %
% number of osteoclast (vs. solvent control group) [3]: 49 ± 3.0%

Cc1sc(N(C)Cc2ccccc2)nc1-c1ccc(OCCCCCOc2ccc(C(=N)NO)cc2)cc1 [Compound 125, N-hydroxy-4-{5-(4-[2-(benzyl-methyl-amino)-5-methyl-1,3-thiazol-4-yl]phenoxy)pentyloxy}-benzamidine]
% number of osteoclast (vs. solvent control group) [1]: 43 ± 3.3^ab %
% number of osteoclast (vs. solvent control group) [2]: 21 ± 9.0^ac %
activity at 0.1 µM [3]: 66 ± 4.4%

CCN(Cc1ccccc1)c1nc(-c2ccc(OCCCCCOc3ccc(C(=N)NO)cc3)cc2)c(C)s1 [Compound 127, N-hydroxy-4-[5-{4-[2-(benzyl-ethyl-amino)-5-methyl-1,3-thiazol-4-yl]phenoxy}pentyloxy]-benzamidine]
% number of osteoclast (vs. solvent control group) [1]: 37 ± 6.8^ab %
% number of osteoclast (vs. solvent control group) [2]: 33 ± 7.3^ac %
activity at 0.1 µM [3]: 75 ± 14.3%

CCc1sc(N(CC)CCN2CCOCC2)nc1-c1ccc(OCCCCCOc2ccc(C(=N)NO)cc2)cc1 [Compound 132, N-hydroxy-4-[5-(4-{5-ethyl-2-[ethyl-(2-morpholinoethyl)-amino]-1,3-thiazol-4-yl}phenoxy)pentyloxy]-benzamidine]
% number of osteoclast (vs. solvent control group) [1]: 37 ± 8.3^ab %
% number of osteoclast (vs. solvent control group) [2]: 30 ± 3.4^ac %
activity at 0.1 µM [3]: 62 ± 7.7%

CCc1sc(N(C)Cc2ccccc2)nc1-c1ccc(OCCCCCOc2ccc(C(=N)NO)cc2)cc1 [Compound 133, N-hydroxy-4-[5-{4-[2-(benzyl-methyl-amino)-5-ethyl-1,3-thiazol-4-yl]phenoxy}pentyloxy]-benzamidine]
% number of osteoclast (vs. solvent control group) [1]: 42 ± 8.3^b %
% number of osteoclast (vs. solvent control group) [2]: 25 ± 5.7^ac %
activity at 0.1 µM [3]: 54 ± 8.3%

CCc1sc(N(C)Cc2cccnc2)nc1-c1ccc(OCCCCCOc2ccc(C(=N)NO)cc2)cc1 [Compound 134, N-hydroxy-4-[5-(4-{5-ethyl-2-[methyl-(pyridin-3-ylmethyl)amino]-1,3-thiazol-4-yl}phenoxy)pentyloxy]-benzamidine]
% number of osteoclast (vs. solvent control group) [1]: 39 ± 3.4^ab %
% number of osteoclast (vs. solvent control group) [2]: 24 ± 4.0^ac %
activity at 0.1 µM [3]: 57 ± 4.3%

CCc1sc(N(Cc2cccnc2)Cc2cccnc2)nc1-c1ccc(OCCCCCOc2ccc(C(=N)NO)cc2)cc1 [Compound 137, N-hydroxy-4-[5-(4-{2-[bis-(pyridin-3-ylmethyl)amino]-5-ethyl-1,3-thiazol-4-yl}phenoxy)pentyloxy]-benzamidine]
% number of osteoclast (vs. solvent control group) [1]: 11 ± 4.3^b %
% number of osteoclast (vs. solvent control group) [2]: 7 ± 2.2^ac %
activity at 0.1 µM [3]: 19 ± 2.9%

CCc1sc(N(CCO)CCO)nc1-c1ccc(OCCCCCOc2ccc(C(=N)NO)cc2)cc1 [Compound 139, N-hydroxy-4-[5-(4-{2-[bis-(2-hydroxyethyl)amino]-5-ethyl-1,3-thiazol-4-yl}phenoxy)pentyloxy]-benzamidine]
% number of osteoclast (vs. solvent control group) [1]: 49 ± 7.8%
% number of osteoclast (vs. solvent control group) [2]: 38 ± 6.9^ac %
activity at 0.1 µM [3]: 64 ± 4.6%

CC(C)c1sc(N(C)Cc2cccnc2)nc1-c1ccc(OCCCCCOc2ccc(C(=N)NO)cc2)cc1 [Compound 141, N-hydroxy-4-[5-(4-{5-isopropyl-2-[methyl-(pyridin-3-ylmethyl)amino]-1,3-thiazol-4-yl}phenoxy)pentyloxy]-benzamidine]
% number of osteoclast (vs. solvent control group) [1]: 65 ± 2.8%
% number of osteoclast (vs. solvent control group) [2]: 60 ± 7.5^ac %
activity at 0.1 µM [3]: 84 ± 8.8%

CCCCc1sc(N(C)CCN2CCOCC2)nc1-c1ccc(OCCCCCOc2ccc(C(=N)NO)cc2)cc1 [Compound 144, N-hydroxy-4-[5-(4-{5-butyl-2-[methyl-(2-morpholinoethyl)amino]-1,3-thiazol-4-yl}phenoxy)pentyloxy]-benzamidine]
% number of osteoclast (vs. solvent control group) [1]: 44 ± 10.5^ab %
% number of osteoclast (vs. solvent control group) [2]: 37 ± 4.3^ac %
activity at 0.1 µM [3]: 82 ± 6.7%

CCCCc1sc(N(CCC)CCC)nc1-c1ccc(OCCCCCOc2ccc(C(=N)NO)cc2)cc1 [Compound 146, N-hydroxy-4-{5-[4-(5-butyl-2-dipropylamino-1,3-thiazol-4-yl)phenoxy]pentyloxy}-benzamidine]
% number of osteoclast (vs. solvent control group) [1]: 79 ± 7.8%
% number of osteoclast (vs. solvent control group) [2]: 60 ± 13.6^c %
activity at 0.1 µM [3]: 81 ± 8.9%

CN(Cc1cccnc1)c1nc(-c2ccc(OCCCCCOc3ccc(C(=N)NO)cc3)cc2)c(CC2CCCC2)s1 [Compound 147, N-hydroxy-4-[5-(4-{5-cyclopentylmethyl-2-[methyl-(pyridin-3-ylmethyl)amino]-1,3-thiazol-4-yl}phenoxy)pentyloxy]-benzamidine]
% number of osteoclast (vs. solvent control group) [1]: 31 ± 3.2^ab %
% number of osteoclast (vs. solvent control group) [2]: 14 ± 3.0^ac %
activity at 0.1 µM [3]: 46 ± 4.1%

CN(CCN1CCOCC1)c1nc(-c2ccc(OCCCCCOc3ccc(C(=N)NO)cc3)cc2)c(CC2CCCC2)s1 [Compound 148, N-hydroxy-4-[5-(4-{5-cyclopentylmethyl-2-[methyl-(2-morpholinoethyl)amino]-1,3-thiazol-4-yl}phenoxy)pentyloxy]-benzamidine]
% number of osteoclast (vs. solvent control group) [1]: 33 ± 8.3^ab %
% number of osteoclast (vs. solvent control group) [2]: 19 ± 2.4^a %
activity at 0.1 µM [3]: 65 ± 4.3%
